The values that follow come from publication PMC11003477, “Fluorine and chlorine substituted adamantyl-urea as molecular tools for inhibition of human soluble epoxide hydrolase with picomolar efficacy” (Journal of Enzyme Inhibition and Medicinal Chemistry, 2023).

In series [1] the target is T1, human sEH (Homo sapiens, UniProt P34913).
T1 construct: made in house; host or cells: insect cells with baculovirus (given both as High Five cells and as Spodoptera frugiperda 21)
T1 sequence (P34913 1-555): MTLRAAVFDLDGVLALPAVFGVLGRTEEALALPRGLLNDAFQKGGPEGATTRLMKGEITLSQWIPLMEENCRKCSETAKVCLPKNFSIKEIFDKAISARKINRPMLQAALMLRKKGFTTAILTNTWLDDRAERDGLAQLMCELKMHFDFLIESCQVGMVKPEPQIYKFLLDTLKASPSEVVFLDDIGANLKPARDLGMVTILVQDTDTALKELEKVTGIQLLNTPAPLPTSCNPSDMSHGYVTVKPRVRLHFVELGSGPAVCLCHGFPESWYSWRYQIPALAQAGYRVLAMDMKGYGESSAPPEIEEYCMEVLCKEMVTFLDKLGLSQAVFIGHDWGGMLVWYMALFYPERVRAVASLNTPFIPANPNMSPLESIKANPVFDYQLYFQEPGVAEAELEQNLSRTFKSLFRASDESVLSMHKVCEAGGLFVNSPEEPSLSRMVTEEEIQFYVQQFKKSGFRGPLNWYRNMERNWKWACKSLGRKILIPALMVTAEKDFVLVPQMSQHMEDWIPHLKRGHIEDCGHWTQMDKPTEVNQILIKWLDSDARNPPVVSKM
Conditions: cited from earlier work.

Series [2] can be described thus: Aqueous solubility by turbidimetric assay. It counts as physicochemical. Conditions: aqueous buffer, kinetic from dmso stock, sodium phosphate buffer (pH 7.4, 0.1 M) containing 1% of DMSO, read-out: Saq (aqueous solubility). The procedure: Solubilities were measured in sodium phosphate buffer (pH 7.4, 0.1 M) containing 1% of DMSO by turbidimetric assay.
Series [3] deals with T1, human sEH. The series can be described thus: Human sEH inhibition, kinetic fluorescent assay (CMNPC assay). It counts as biochemical. The procedure: Recombinant human and recombinant rat sEH were produced in insect High Five cells using recombinant baculovirus expression vectors, and purified by affinity chromatography as reported previously.[31]^,[32] […] Human sEH was obtained by expressing cDNA in the baculovirus system in the cell line Spodoptera frugiperda 21.
Determination of inhibitory potency (IC50) by fluorescent assay (CMNPC assay)[27]
The enzyme (ca. 1 nM human sEH) was incubated at 30 °C with inhibitors ([I]final = 0.4–100,000 nM) for 5 min in 100 mM sodium phosphate buffer (200 μL, pH 7.4) containing 0.1 mg mL^−1 of BSA and 1% of DMSO. The substrate (cyano(2-methoxynaphthalen-6-yl)methyl trans-(3-phenyloxyran-2-yl)methylcarbonate, CMNPC) was then added ([S]final = 5 μM). The activity was assessed by measuring the appearance of the fluorescent 6-methoxynaphthaldehyde product ([…]) at 30 °C during a 10 min incubation (Spectramax M2; Molecular Device, Inc., Sunnyvale, CA).

Setting [4] is: CMNPC fluorescent assay, means of three independent experiments, measurement limit 0.04 nM, read-out: IC50.

As a reminder, the IC50 is the concentration that inhibits the measured activity by half. What is called melting point is the temperature of the solid-liquid transition. Usually solubility stands for the dissolved amount per volume that the medium holds.

Values after ≈ are worked out from the molar mass of the structure shown. Like-named read-outs stand apart in the source and are kept apart here.

For the compound `O=C(NC12CC3CC(CC(Cl)(C3)C1)C2)N[C@H]1CC[C@H](Oc2ccc(C(=O)O)cc2)CC1` [Compound 1c], the half-maximal inhibitory concentration (IC50) at human sEH [1] (chlorine derivative of t-AUCB without methylene bridge) is 1.4 nM.
Compound `O=C(NCCCCCCCCNC(=O)NCC12CC3CC(CC(F)(C3)C1)C2)NCC12CC3CC(CC(F)(C3)C1)C2` [Compound 11g] yielded a melting point of 95 to 96 °C. The solubility in series [2] was determined as 180 ± 20 µM (≈ 101 µg/mL). Besides, at human sEH [3] (setting [4]), the concentration for half-maximal inhibition (IC50) is below 0.04 nM.
In the same order, the values of `O=C(NCCNC(=O)NCC12CC3CC(CC(Cl)(C3)C1)C2)NCC12CC3CC(CC(Cl)(C3)C1)C2` [Compound 12a] are 222 to 223 °C, 60 ± 10 µM (≈ 30.7 µg/mL) and 5.1 nM.
In the same order, the values of `O=C(NCCCCCCCCCCNC(=O)NCC12CC3CC(CC(Cl)(C3)C1)C2)NCC12CC3CC(CC(Cl)(C3)C1)C2` [Compound 12i] are 189 to 190 °C, 60 ± 10 µM (≈ 37.4 µg/mL) and below 0.04 nM.
Compound `O=C(NCCNC(=O)NCC12CC3CC(CC(F)(C3)C1)C2)NCC12CC3CC(CC(F)(C3)C1)C2` [Compound 11a] had a melting point of 78 to 79 °C. For the same compound, in series [2], the solubility worked out at 150 ± 20 µM (≈ 71.8 µg/mL). At human sEH [3] (setting [4]), the half-inhibitory concentration (IC50) was 9.2 nM.
In the same order, the values of `O=C(NCCCCCCCNC(=O)NCC12CC3CC(CC(Cl)(C3)C1)C2)NCC12CC3CC(CC(Cl)(C3)C1)C2` [Compound 12f] are 164 to 165 °C, 80 ± 10 µM (≈ 46.5 µg/mL) and below 0.04 nM.
For the compound `O=C(NCCCCCCNC(=O)NCC12CC3CC(CC(C3)C1)C2)NCC12CC3CC(CC(C3)C1)C2` [DAMH, 1,1'-(hexane-1,6-diyl)bis(3-(adamantan-1-ylmethyl)urea), reference compound], in series [2], the solubility turned out to be 65 ± 5 µM (≈ 32.4 µg/mL). Moreover, the half-maximal inhibitory concentration (IC50) on human sEH [1] (earlier version of the assay with a measurement limit of 0.4 nM) is 1 nM; at human sEH [3] (setting [4]) it was 0.4 nM.
`O=C(NCCCCCCNC(=O)NCC12CC3CC(CC(F)(C3)C1)C2)NCC12CC3CC(CC(F)(C3)C1)C2` [Compound 11e] showed a melting point of 82 to 83 °C. The solubility in series [2] was 150 ± 20 µM (≈ 80.2 µg/mL). The IC50 on human sEH [3] (setting [4]) is below 0.04 nM.
For `O=C(NCCCCNC(=O)NCC12CC3CC(CC(F)(C3)C1)C2)NCC12CC3CC(CC(F)(C3)C1)C2` [Compound 11c], in that order: 142 to 143 °C, 180 ± 20 µM (≈ 91.2 µg/mL) and 0.5 nM.
For `O=C(NCCCCCCCCCCNC(=O)NCC12CC3CC(CC(F)(C3)C1)C2)NCC12CC3CC(CC(F)(C3)C1)C2` [Compound 11i], in that order: 76 to 77 °C, 150 ± 20 µM (≈ 88.6 µg/mL) and 0.05 nM.
In the same order, the values of `O=C(NCCCCCCNC(=O)NCC12CC3CC(CC(Cl)(C3)C1)C2)NCC12CC3CC(CC(Cl)(C3)C1)C2` [Compound 12e] are 148 to 149 °C, 60 ± 10 µM (≈ 34.1 µg/mL) and below 0.04 nM.
As for `O=C(NCCCCNC(=O)NCC12CC3CC(CC(Cl)(C3)C1)C2)NCC12CC3CC(CC(Cl)(C3)C1)C2` [Compound 12c], the melting point was 213 to 214 °C. Besides, the solubility in series [2] amounted to 60 ± 10 µM (≈ 32.4 µg/mL). Moreover, at human sEH [3] (setting [4]), the IC50 was below 0.04 nM.
With `O=C(NCCCCCCCCNC(=O)NCC12CC3CC(CC(Cl)(C3)C1)C2)NCC12CC3CC(CC(Cl)(C3)C1)C2` [Compound 12g], the melting point lay in the range of 187 to 188 °C. For the same compound, in series [2], the solubility amounted to 60 ± 10 µM (≈ 35.7 µg/mL). The IC50 on human sEH [3] (setting [4]) stood at 0.1 nM.
Consider `O=C(NCCCCCNC(=O)NCC12CC3CC(CC(F)(C3)C1)C2)NCC12CC3CC(CC(F)(C3)C1)C2` [Compound 11d], for which the melting point was 75 to 76 °C. For the same compound, the solubility in series [2] stood at 140 ± 20 µM (≈ 72.9 µg/mL). Also, on human sEH [3] (setting [4]), the IC50 stood at 0.4 nM.
In the same order, the values of `O=C(NCCCNC(=O)NCC12CC3CC(CC(F)(C3)C1)C2)NCC12CC3CC(CC(F)(C3)C1)C2` [Compound 11b] are 87 to 88 °C, 150 ± 20 µM (≈ 73.9 µg/mL) and 1.8 nM.
For `O=C(NCCCNC(=O)NCC12CC3CC(CC(Cl)(C3)C1)C2)NCC12CC3CC(CC(Cl)(C3)C1)C2` [Compound 12b], in that order: 194 to 195 °C, 80 ± 10 µM (≈ 42 µg/mL) and below 0.04 nM.
For `O=C(NCCCCCNC(=O)NCC12CC3CC(CC(Cl)(C3)C1)C2)NCC12CC3CC(CC(Cl)(C3)C1)C2` [Compound 12d], the melting point was in the range of 157 to 158 °C. Moreover, the solubility in series [2] worked out at 70 ± 10 µM (≈ 38.8 µg/mL). Further, the IC50 at human sEH [3] (setting [4]) is below 0.04 nM. On human sEH [3] (value below the accuracy limit of the assay (0.04 nM), read-out: IC50 as measured, before reduction to the measurement limit), the concentration for half-maximal inhibition (IC50) was 0.002 nM.
The compound `O=C(NCC12CC3CC(CC(Cl)(C3)C1)C2)N[C@H]1CC[C@H](Oc2ccc(C(=O)O)cc2)CC1` [Compound 10] had a melting point of 192 to 193 °C. Besides, the solubility in series [2] worked out at 160 ± 20 µM (≈ 73.8 µg/mL). On human sEH [3] (setting [4]), the 50% inhibitory concentration (IC50) is below 0.04 nM.
`O=C(NCC12CC3CC(CC(F)(C3)C1)C2)N[C@H]1CC[C@H](Oc2ccc(C(=O)O)cc2)CC1` [Compound 9]: the melting point was 85 to 86 °C. Besides, the solubility in series [2] is 150 ± 20 µM (≈ 66.7 µg/mL). For the same compound, the 50% inhibitory concentration (IC50) on human sEH [3] (setting [4]) came to 0.6 nM.
Compound `O=C(NCCCCCCCNC(=O)NCC12CC3CC(CC(F)(C3)C1)C2)NCC12CC3CC(CC(F)(C3)C1)C2` [Compound 11f] showed a melting point of 77 to 78 °C. In addition, in series [2], the solubility amounted to 200 ± 20 µM (≈ 110 µg/mL). Besides, the IC50 at human sEH [3] (setting [4]) was below 0.04 nM.
For `O=C(NCCCCCCCCCNC(=O)NCC12CC3CC(CC(F)(C3)C1)C2)NCC12CC3CC(CC(F)(C3)C1)C2` [Compound 11h], in that order: 73 to 74 °C, 200 ± 20 µM (≈ 115 µg/mL) and 0.05 nM.
